Our source for the nuclear translocation (1=yes, 0=no) values is PubChem BioAssay AID504471 (NMMLSC, 2011).

For the experiment, the target named is Retrograde regulation protein 3 (Saccharomyces cerevisiae (strain ATCC 204508 / S288c)) (UniProt P38165). The experiment can be described thus: nuclear shift of GFP-tagged Rtg3 – imaging, fluorescence microscopy, S288c, yeast TOR pathway modulator project, SAR follow-up (AID 504471). The conditions noted are these: S. cerevisiae Rtg3-GFP, nuclear translocation by microscopy; at 30 µM; active compounds read high.
Consider `CNc1nc(N)c([N+](=O)[O-])c(Nc2cccc(F)c2)n1`, for which the nuclear translocation (1=yes, 0=no) is 1.

As for `CNc1nc(N)c([N+](=O)[O-])c(Nc2cccc(Cl)c2)n1`, the nuclear translocation (1=yes, 0=no) is 1.

On to `CO[C@H]1C[C@@H]2CC[C@@H](C)[C@@](O)(O2)C(=O)C(=O)N2CCCC[C@H]2C(=O)O[C@H]([C@H](C)C[C@@H]2CC[C@@H](O)[C@H](OC)C2)CC(=O)[C@H](C)/C=C(\C)[C@@H](O)[C@@H](OC)C(=O)[C@H](C)C[C@H](C)/C=C/C=C/C=C/1C`, for which the nuclear translocation (1=yes, 0=no) was 1.

For `CNc1nc(N)c([N+](=O)[O-])c(Nc2ccccc2)n1`, the nuclear translocation (1=yes, 0=no) is 1.
